Values quoted from earlier work in patent publication US20080171791A1, “Compositions and Method for Losing Weight” (MDR Fitness Corp., priority 2007, published 2008).

How the values were obtained:
[1] = long-term / large quantities / higher amounts ingested
[2] = system: mammalian target of rapamycin (mTOR) signaling pathway; details: rats; for food intake: administered near arcuate nucleus, approximately four hours after administration, lasted 24 hours
[3] = in vivo
[4] = system: lipogenic genes; details: compared with oleic acid (C18-1)

SMILES	solubility in water	reported adverse effects [1]	food intake [2]	crossing the blood-brain barrier [3]	suppression of lipogenic genes [4]	further results
CCCCC/C=C\C/C=C\C/C=C\C/C=C\CCCC(=O)O [arachidonic acid]	–	–	–	–	more effective	–
CCCCC/C=C\C/C=C\CCCCCCCC(=O)O [linoleic acid]	–	–	–	–	more effective	–
CCCCCCCCC=CCCCCCCCC(=O)O [oleic acid, 9-octadecenoic acid]	–	–	–	capable of crossing the blood-brain barrier	–	absorption from the digestive tract [3]: absorbed intact

Second part, led by results:

solubility in water	SMILES	reported adverse effects [1]	food intake [2]	crossing the blood-brain barrier [3]	suppression of lipogenic genes [4]	further results
not soluble in water	CCC(C)[C@H](N)C(=O)O (stereo in doubt) [Isoleucine, (2S, 3S)-2-amino-3-methylpentanoic acid]	increased urination	–	–	–	–
slightly soluble in water	CC(C)C[C@H](N)C(=O)O [L-leucine, leucine]	–	decrease	capable of crossing the blood-brain barrier	–	body weight ([2]; accompanying decrease in food intake): weight loss
water soluble	CC(C)[C@H](N)C(=O)O [L-valine, valine]	hallucinations and crawling sensations on the skin	did not cause the same effect	–	–	–
